Test results reported in PubChem BioAssay (NCI).
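Cells were grown in 96-well plates and exposed to each compound for 48 hours at five concentrations; endpoints were interpolated linearly between bracketing concentrations, or set to the highest concentration if not reached. TGI is the concentration that stops growth completely.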

What was measured:
Assay in all cases: growth of human tumour cells (NCI), 48 h
RPMI-8226 leukemia = tested on: RPMI-8226 leukemia
NCI/ADR-RES ovarian = tested on: NCI/ADR-RES ovarian
MALME-3M melanoma = tested on: MALME-3M melanoma
SF-539 CNS = tested on: SF-539 CNS
NCI-H23 lung = tested on: NCI-H23 lung
A549 NSCLC = tested on: A549 NSCLC
OVCAR-8 ovarian = tested on: OVCAR-8 ovarian
SK-MEL-5 melanoma = tested on: SK-MEL-5 melanoma
MDA-MB-435 = tested on: MDA-MB-435
EKVX NSCLC = tested on: EKVX NSCLC
U251 CNS = tested on: U251 CNS
HOP-92 NSCLC = tested on: HOP-92 NSCLC
K-562 leukemia = tested on: K-562 leukemia
M14 melanoma = tested on: M14 melanoma
OVCAR-3 ovarian = tested on: OVCAR-3 ovarian

| Compound | TGI (RPMI-8226 leukemia) | TGI (NCI/ADR-RES ovarian) | TGI (MALME-3M melanoma) | TGI (SF-539 CNS) | TGI (NCI-H23 lung) | TGI (A549 NSCLC) | TGI (OVCAR-8 ovarian) | TGI (SK-MEL-5 melanoma) | TGI (MDA-MB-435) | TGI (EKVX NSCLC) | TGI (U251 CNS) | TGI (HOP-92 NSCLC) | TGI (K-562 leukemia) | TGI (M14 melanoma) | TGI (OVCAR-3 ovarian) |
| --- | --- | --- | --- | --- | --- | --- | --- | --- | --- | --- | --- | --- | --- | --- | --- |
| COC(=O)C1([C@@H]2C[C@@H](O)[C@]3(C)CC/C=C(\C)CCC[C@H](C)[C@H](O)[C@@H]2O3)CC1 | > 100 µM | > 100 µM | > 100 µM | > 100 µM | > 100 µM | > 100 µM | > 100 µM | > 100 µM | > 100 µM | > 100 µM | > 100 µM | > 100 µM | > 100 µM | > 100 µM | > 100 µM |
| O=C1CCC(=O)N1CNc1ccc2c(c1)Sc1ccccc1O2 | > 100 µM | > 100 µM | > 100 µM | 34.7 µM | > 100 µM | > 100 µM | 68.5 µM | 70.1 µM | > 100 µM | 75.4 µM | > 100 µM | 56.7 µM | > 100 µM | 99.2 µM | 75 µM |
| COc1cccc2c1C(=O)C(=O)c1c-2oc(=O)c2cc(C)cc(OC)c12 | 62.4 µM | 31.7 µM | > 75 µM | > 75 µM | 58.4 µM | > 75 µM | 30.6 µM | 35.6 µM | 26.1 µM | > 75 µM | 23.2 µM | > 75 µM | > 75 µM | > 75 µM | 27.2 µM |
| O=C(NNC(=S)Nc1ccccc1)C12CC3CC(CC(C3)C1)C2 | > 100 µM | 59.7 µM | > 100 µM | > 100 µM | > 100 µM | > 100 µM | > 100 µM | 42.6 µM | > 100 µM | > 100 µM | > 100 µM | 95.8 µM | > 81.6 µM | 67 µM | > 67.7 µM |
| COC1Cc2c(C)c(OC(C)=O)c3cccnc3c2O1 (stereo not given) | > 100 µM | 67.4 µM | 31.9 µM | > 100 µM | 36.3 µM | 34 µM | 44.7 µM | 29.2 µM | 32.6 µM | 30.6 µM | > 100 µM | 33.8 µM | 86 µM | 27.7 µM | 70.5 µM |
| O=C1O/C(=C\c2ccc(O)c(Br)c2)C(c2ccc(O)cc2)=C1Cl | 34 µM | 82.4 µM | > 100 µM | > 100 µM | 61.6 µM | > 100 µM | > 100 µM | 53.5 µM | > 100 µM | > 100 µM | > 100 µM | > 100 µM | > 100 µM | > 100 µM | 59.7 µM |
| CC(=O)N1NC(c2ccccc2)=CC(=O)/C1=C/C(=O)c1ccccc1 | > 100 µM | > 100 µM | > 100 µM | > 100 µM | > 100 µM | > 100 µM | > 100 µM | > 100 µM | 43.1 µM | > 100 µM | > 100 µM | > 100 µM | > 100 µM | > 100 µM | > 100 µM |
| CCCCCCCC/C=C\CCCCCCCCNc1ccn(C2OC(COP(=O)(O)OC3CC(n4cc(F)c(=O)[nH]c4=O)OC3CO)C(O)C2O)c(=O)n1 (stereo not given) | > 100 µM | > 100 µM | > 100 µM | 5.16 µM | > 30.3 µM | > 100 µM | > 100 µM | > 100 µM | > 100 µM | > 100 µM | > 100 µM | > 100 µM | > 100 µM | > 73.5 µM | > 100 µM |
| C=CCNC1=C2C[C@@H](C)C[C@@H](OC)[C@H](OC(=O)CN(C)C)[C@H](C)/C=C(\C)[C@@H](OC(N)=O)[C@H](OC)/C=C\C=C(/C)C(=O)NC(=CC1=O)C2=O | > 48.2 µM | > 92.1 µM | 19 µM | 16.2 µM | 19.8 µM | 16.9 µM | 63.1 µM | 14.6 µM | 13.7 µM | 21.8 µM | 19.7 µM | 23.3 µM | > 42.1 µM | 18.9 µM | 13.8 µM |
| CCOC(=O)Cn1c(=O)c2nc(SC)sc2n(-c2ccc(C)cc2)c1=S | > 100 µM | > 100 µM | > 92 µM | > 75 µM | > 89.5 µM | > 100 µM | > 100 µM | > 100 µM | > 100 µM | > 100 µM | 71.6 µM | 68.1 µM | > 100 µM | > 100 µM | > 100 µM |
| NC(=S)SCCC(=O)O | > 100 µM | > 100 µM | > 100 µM | > 100 µM | > 100 µM | > 100 µM | > 100 µM | > 100 µM | > 100 µM | > 100 µM | > 100 µM | > 100 µM | > 100 µM | > 100 µM | > 100 µM |
| CCOC(=O)c1sc2nc(SC)nc(Nc3ccc4c(c3)OCCCO4)c2c1N | > 100 µM | > 100 µM | 80.7 µM | > 100 µM | > 100 µM | > 100 µM | > 100 µM | 18.7 µM | > 100 µM | > 100 µM | > 100 µM | > 100 µM | > 100 µM | > 100 µM | 75.9 µM |
| CC(=O)C1(c2ccccc2)CCN(Cn2sc3nc(C)cc(C)c3c2=O)CC1 | > 100 µM | > 100 µM | 41.5 µM | 50.9 µM | 41.6 µM | > 100 µM | 74.6 µM | > 100 µM | 59.8 µM | 58.1 µM | > 100 µM | > 100 µM | > 100 µM | 71.6 µM | > 100 µM |
| CNC(=O)Nc1cc2c3c(c1)CCCN3CCC2 | > 10 µM | > 10 µM | > 10 µM | > 10 µM | > 10 µM | > 10 µM | > 10 µM | > 10 µM | > 10 µM | > 10 µM | > 10 µM | > 10 µM | > 10 µM | > 10 µM | > 10 µM |
| c1ccc(COCC23CCN(Cc4ccccc4)C(CC(OCc4ccccc4)C2)S3)cc1 (stereo not given) | > 100 µM | > 100 µM | > 100 µM | > 100 µM | 95.9 µM | > 100 µM | > 100 µM | 32.3 µM | > 100 µM | > 100 µM | > 100 µM | 87.4 µM | > 100 µM | > 100 µM | > 100 µM |
| CC1=C(C)SC(=C2Sc3c(n(C)c(=O)[nH]c3=O)S2)S1 | > 100 µM | > 100 µM | > 100 µM | > 100 µM | > 100 µM | > 100 µM | > 100 µM | > 100 µM | > 100 µM | > 100 µM | > 100 µM | > 100 µM | > 100 µM | > 100 µM | > 100 µM |
